Assays:
[1] = 25° C.; cited from earlier work
[2] = TGA (thermogravimetric analysis) measurements on TFL technical; format: physicochemical
Experimental: TGA (Thermogravimetric analysis) measurements were performed on TFL technical (release profile measurements done at isothermal (55° C.) and at constant temperature increase ratio (3K/mn)), and from that, it was discovered that release kinetic at “usual” candle melting temp (50-70° C.) would not allow enough TFL release to get expected efficacy, and that TFL release is not linear. It was determined as well that release onset for TFL is around 100° C. and far higher release ratio occurs at higher temperatures. The calculated estimated ideal temperature for TFL, for outdoor use, from the TGA measurement would be around 150° C.
TGA (Thermal Gravimetric Analysis) for TFL was run, which allows characterization of the release profile of an active ingredient as a function of the temperature. […] Thus, TFL release was pretty low in the range of the “usual candle wax melting temperature”, and it was not be possible to get the needed release rate. (which is the reason why TFL was mainly burnt before being released when incorporated directly into a candle). At such a temperature range, it would hardly possible (considering the potential TFL loading into the candle and candle size) to reach a release above 2-3 mg/h which is far below our 20-25 mg/h needed for outdoor use. • Based on the TGA measurement, it can be seen that to reach the desired 25 mg/h release rate for TFL, the pod temp should be >130-140° C.
(before a typical flame temperature). […] This amount is much lower than the desired 25 mg/h release rate.

[3] = 15 mg flakes, temperature ramp 3K/min, continuous N2-flow

SMILES | Vapor pressure [1] | also measured
C#CCN1CC(=O)N(COC(=O)[C@@H]2C(C=C(C)C)C2(C)C)C1=O (mixture of isomers) [Imiprothrin] | 1.85 mPa @25 °C | 
C#CC(OC(=O)C1C(C=C(C)C)C1(C)C)/C(C)=C/CC (centres unmarked) [Empenthrin] | 15.4 mPa @25 °C | 
C/C=C/C1C(C(=O)OCc2c(F)c(F)c(COC)c(F)c2F)C1(C)C (centres unmarked) [Metofluthrin] | 1.96 mPa @25 °C | 
C#CCC1=C(C)C(OC(=O)C2C(C=C(C)C)C2(C)C)CC1=O (centres unmarked) [Prallethrin] | 0.6 mPa @25 °C | 
CC=CC1C(C(=O)OCc2c(F)c(F)c(C)c(F)c2F)C1(C)C (centres unmarked) [Profluthrin] | 10.3 mPa @25 °C | 
CC1(C)[C@H](C=C(Cl)Cl)[C@H]1C(=O)OCc1c(F)c(F)cc(F)c1F [TFL, Transfluthrin] | 2 mPa @25 °C | complete evaporation [2, 3]: 255 °C; onset of evaporation [2, 3]: around 100 °C; reachable release at usual candle wax melting temperature ([2]; 50-80° C., TFL loaded into candle): 2 to 3 mg/h; release onset for TFL ([2]; TGA on TFL technical, isothermal (55° C.) and 3K/mn ramp): around 100 °C; active ingredient release below 100-110° C. ([2]; TGA, FIG. 9A): very little release; TFL evaporation rate ([2]; at 55° C. candle melting temperature, TGA conditions): < 0.03 mg/h; pod temp to reach the desired 25 mg/h release rate ([2]; based on the TGA measurement): 130-140 °C
CC(C)=CC1C(C(=O)OCN2C(=O)C3=C(CCCC3)C2=O)C1(C)C (centres unmarked) [Tetramethrin] | 2.11 mPa @25 °C | 
